The values that follow come from patent publication US8119624B2, “Fused phenyl amido heterocyclic compounds” (Pfizer Inc., priority 2006, dated 2012).

The test has as its target T1, Full-length glucokinase (beta cell isoform) (Homo sapiens, UniProt P35557).
T1 construct: Full-length glucokinase (beta cell isoform) was His-tagged at N-terminus; His tag (N); made in house
T1 sequence (P35557 1-465): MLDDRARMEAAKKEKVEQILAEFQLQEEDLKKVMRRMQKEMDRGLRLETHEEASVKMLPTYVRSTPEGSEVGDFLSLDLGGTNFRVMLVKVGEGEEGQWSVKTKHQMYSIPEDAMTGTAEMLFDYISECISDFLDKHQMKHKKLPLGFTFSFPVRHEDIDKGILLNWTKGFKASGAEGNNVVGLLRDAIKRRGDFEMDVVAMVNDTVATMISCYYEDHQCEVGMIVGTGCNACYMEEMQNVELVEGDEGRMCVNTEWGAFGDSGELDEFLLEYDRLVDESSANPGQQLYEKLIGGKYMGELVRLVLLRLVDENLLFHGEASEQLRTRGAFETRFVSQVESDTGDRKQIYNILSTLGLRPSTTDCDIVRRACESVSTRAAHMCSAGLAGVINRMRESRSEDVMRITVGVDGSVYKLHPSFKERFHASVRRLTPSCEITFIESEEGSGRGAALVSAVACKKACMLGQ
The test can be described thus: Glucokinase biochemical assay (PK/LDH-coupled, NADH depletion at 340 nm): % activation, EC50, % max activation. To be noted: 5 mM glucose; for activation at 10 µM / % Activation at 10 uM: 10 uM compound, % Activation=(Va/Vo−1)×100; for activation at 10 µM: read-out: % Activation at 10 uM; for pEC50: GK activation, read-out: EC50; for Emax / % Max Activation: fitted maximum activation; for Emax: read-out: % Max Activation. How it is done:
Full-length glucokinase (beta cell isoform) was His-tagged at N-terminus and purified by a Ni column followed by size exclusion chromatography. Glucose was obtained from Calbiochem, and other reagents were from Sigma.
All assays were performed in a Corning 96-well plate using Spectramax PLUS spectrophotometer (Molecular Devices) at room temperature. The final assay volume was 100 uL. The buffer conditions used in this assay were as follows: 50 mM HEPES, 5 mM glucose, 1 mM ATP, 2 mM MgCl2, 0.7mM NADH, 2 mM DTT, 1 Unit/mL PK/LDH, 0.2 mM phosphoenolpyruvate, 25 mM KCl. Tested compound in DMSO solution was added to the buffer and mixed well by a plate shaker for 1 minute. The final concentration of DMSO introduced into the assay was 1%.
Glucokinase was added to the buffer mixture to initiate the reaction in the presence and absence of compound. Reaction was monitored by absorbance at 340nm due to the depletion of NADH. The initial reaction velocity was measured by the slope of a linear time course of 200-900 sec.
The percentage of activation was calculated by the following equation: % Activation=(Va/Vo−1)×100;
wherein each of Va and Vo is defined as the initial reaction velocity in the presence and absence of the tested compound, respectively.
The GK activities were measured as a function of compound concentrations.

pEC50: −log10 of the molar value.

The pEC50 is the negative decadic logarithm of the EC50, by convention in mol/L. With `Cc1cc(NC(=O)c2cc(Oc3ccc(S(C)(=O)=O)cc3)c3c(c2)OC(C)(C)C3)no1` [Example 25, 4-(4-Methanesulfonyl-phenoxy)-2,2-dimethyl-2,3-dihydro-benzofuran-6-carboxylic acid(5-methyl-isoxazol-3-yl)-amide], the activation at 10 µM is 102%, the pEC50 was 5.89 and the Emax came to 116%.
For `CC1(C)Cc2c(Oc3ccc(S(C)(=O)=O)cc3)cc(C(=O)Nc3ccon3)cc2O1` [Example 26, 4-(4-Methanesulfonyl-phenoxy)-2,2-dimethyl-2,3-dihydro-benzofuran-6-carboxylic acid isoxazol-3-ylamide], the activation at 10 µM turned out to be 197%, the negative-log EC50 (pEC50) is 6.40 and the Emax came to 200%.
On to `CCc1nnc(NC(=O)c2cc(Oc3ccc(S(C)(=O)=O)cc3)c3c(c2)OC(C)(C)C3)s1` [Example 27, 4-(4-Methanesulfonyl-phenoxy)-2,2-dimethyl-2,3-dihydro-benzofuran-6-carboxylic acid(5-ethyl-[1,3,4]thiadiazol-2-yl)-amide], for which the activation at 10 µM was 112%, the pEC50 is 5.96 and the Emax came to 112%.
Turning to `CC1(C)Cc2c(Oc3ccc(S(C)(=O)=O)cc3)cc(C(=O)Nc3nnc(C4CC4)s3)cc2O1` [Example 28, 4-(4-Methanesulfonyl-phenoxy)-2,2-dimethyl-2,3-dihydro-benzofuran-6-carboxylic acid(5-cyclopropyl-[1,3,4]thiadiazol-2-yl)-amide], the activation at 10 µM was 123%, the pEC50 is 5.70 and the Emax is 158%.
`CCn1ncc(NC(=O)c2cc(Oc3ccc(S(C)(=O)=O)cc3)c3c(c2)OC(C)(C)C3)n1` [Example 29, 4-(4-Methanesulfonyl-phenoxy)-2,2-dimethyl-2,3-dihydro-benzofuran-6-carboxylic acid(2-ethyl-2H-[1,2,3]triazol-4-yl)-amide]: the activation at 10 µM amounted to 284%, the pEC50 is 6.60 and the Emax amounted to 255%.
Taken in the same sequence, the figures for `COCc1nnc(NC(=O)c2cc(Oc3ccc(S(C)(=O)=O)cc3)c3c(c2)OC(C)(C)C3)s1` [Example 30, 4-(4-Methanesulfonyl-phenoxy)-2,2-dimethyl-2,3-dihydro-benzofuran-6-carboxylic acid(5-methoxymethyl-[1,3,4]thiadiazol-2-yl)-amide] were 144%, 5.38 and 183%.
Taken in the same sequence, the figures for `Cn1ccc(NC(=O)c2cc(Oc3ccc(C#N)cc3F)c3c(c2)OC(C)(C)C3)n1` [Example 31, 4-(4-Cyano-2-fluoro-phenoxy)-2,2-dimethyl-2,3-dihydro-benzofuran-6-carbo-xylic acid(1-methyl-1H-pyrazol-3-yl)-amide] were 135%, 5.68 and 153%.
Take `Cn1ccc(NC(=O)c2cc(Oc3ccc(C(=O)N4CCC4)cc3F)c3c(c2)OC(C)(C)C3)n1` [Example 32, 4-[4-(Azetidine-1-carbonyl)-2-fluoro-phenoxy]-2,2-dimethyl-2,3-dihydro-benzo-furan-6-carboxylic acid(1-methyl-1H-pyrazol-3-yl)-amide]: the activation at 10 µM was 164%, the pEC50 was 6.68 and the Emax stood at 177%.
As for `Cn1ccc(NC(=O)c2cc(Oc3ccc(C(=O)N4CCC4)c(F)c3)c3c(c2)OC(C)(C)C3)n1` [Example 33, 4-[4-(Azetidine-1-carbonyl)-3-fluoro-phenoxy]-2,2-dimethyl-2,3-dihydro-benzofuran-6-carboxylic acid(1-methyl-1H-pyrazol-3-yl)-amide], the “% Activation at 10 uM” value amounted to 170%, the negative-log EC50 (pEC50) was 7.18 and the “% Max Activation” value was determined as 171%.
In the case of `Cn1ccc(NC(=O)c2cc(Oc3cc(F)ccc3C(=O)N3CCC3)c3c(c2)OC(C)(C)C3)n1` [Example 34, 4-[2-(Azetidine-1-carbonyl)-5-fluoro-phenoxy]-2,2-dimethyl-2,3-dihydro-benzofuran-6-carboxylic acid(1-methyl-1H-pyrazol-3-yl)-amide], the activation at 10 µM stood at 75.1% and the negative logarithm of the EC50 (pEC50) was below 5.00.
For `Cn1ccc(NC(=O)c2cc(Oc3ccc(C(=O)N4CCC4)cc3)c3c(c2)OC(C)(C)C3)n1` [Example 35, 4-[4-(Azetidine-1-carbonyl)-phenoxy]-2,2-dimethyl-2,3-dihydro-benzofuran-6-carboxylic acid(1-methyl-1H-pyrazol-3-yl)-amide], the activation at 10 µM was found to be 145%, the pEC50 is 6.98 and the Emax is 145%.
Consider `Cn1ccc(NC(=O)c2cc(Oc3cccc(S(C)(=O)=O)c3)c3c(c2)OC(C)(C)C3)n1` [Example 36, 4-(3-Methanesulfonyl-phenoxy)-2,2-dimethyl-2,3-dihydro-benzofuran-6-carboxylic acid(1-methyl-1H-pyrazol-3-yl)-amide], for which the activation at 10 µM was found to be 130%, the negative-log EC50 (pEC50) is 5.96 and the Emax is 149%.
As for `Cn1ccc(NC(=O)c2cc(Oc3cccc(C(=O)N4CCC4)c3)c3c(c2)OC(C)(C)C3)n1` [Example 37, 4-[3-(Azetidine-1-carbonyl)-phenoxy]-2,2-dimethyl-2,3-dihydro-benzofuran-6-carboxylic acid(1-methyl-1H-pyrazol-3-yl)-amide], the activation at 10 µM was determined as 107%, the pEC50 is 6.05 and the Emax worked out at 143%.
On to `Cn1ccc(NC(=O)c2cc(Oc3ccc(C(F)F)cc3)c3c(c2)OC(C)(C)C3)n1` [Example 38, 4-(4-Difluoromethyl-phenoxy)-2,2-dimethyl-2,3-dihydro-benzofuran-6-carboxylic acid(1-methyl-1H-pyrazol-3-yl)-amide], for which the activation at 10 µM was 109%, the pEC50 is 5.62 and the Emax worked out at 149%.
Consider `CN(C)Cc1ccc(Oc2cc(C(=O)Nc3ccn(C)n3)cc3c2CC(C)(C)O3)c(F)c1` [Example 39, 4-(4-Dimethylaminomethyl-2-fluoro-phenoxy)-2,2-dimethyl-2,3-dihydro-benzofuran-6-carboxylic acid(1-methyl-1H-pyrazol-3-yl)-amide], for which the activation at 10 µM was 105%, the pEC50 was 5.70 and the Emax amounted to 133%.
As for `Cn1ccc(NC(=O)c2cc(Oc3ccc(CO)cc3F)c3c(c2)OC(C)(C)C3)n1` [Example 40, 4-(2-Fluoro-4-hydroxymethyl-phenoxy)-2,2-dimethyl-2,3-dihydro-benzofuran-6-carboxylic acid(1-methyl-1H-pyrazol-3-yl)-amide], the “% Activation at 10 uM” value was 109%, the pEC50 is 5.44 and the “% Max Activation” value stood at 150%.
On to `Cn1ccc(NC(=O)c2cc(Oc3ccc(C(=O)N4CCOCC4)cc3F)c3c(c2)OC(C)(C)C3)n1` [Example 41, 4-[2-Fluoro-4-(morpholine-4-carbonyl)-phenoxy]-2,2-dimethyl-2,3-dihydro-benzofuran-6-carboxylic acid(1-methyl-1H-pyrazol-3-yl)-amide], for which the activation at 10 µM worked out at 138%, the negative-log EC50 (pEC50) is 5.85 and the Emax was found to be 141%.
Taken in the same sequence, the figures for `CN1CCN(C(=O)c2ccc(Oc3cc(C(=O)Nc4ccn(C)n4)cc4c3CC(C)(C)O4)c(F)c2)CC1` [Example 42, 4-[2-Fluoro-4-(4-methyl-piperazine-1-carbonyl)-phenoxy]-2,2-dimethyl-2,3-dihydro-benzofuran-6-carboxylic acid(1-methyl-1H-pyrazol-3-yl)-amide] were 128%, 5.64 and 139%.
On to `Cn1ccc(NC(=O)c2cc(Oc3ccc(C(=O)N4CC(F)(F)C4)cc3F)c3c(c2)OC(C)(C)C3)n1` [Example 43, 4-[4-(3,3-Difluoro-azetidine-1-carbonyl)-2-fluoro-phenoxy]-2,2-dimethyl-2,3-dihydro-benzofuran-6-carboxylic acid(1-methyl-1H-pyrazol-3-yl)-amide], for which the activation at 10 µM amounted to 164%, the pEC50 is 6.14 and the Emax was determined as 174%.
